Calls of active or inactive are those of the source.
How the values were obtained:
Kallikrein-7 = Kallikrein-7 (Homo sapiens, UniProt P49862); assay: Fluorescence Intensity-based biochemical primary high throughput dose response assay to identify activators of kallikrein-7 (K7) zymogen.
[1] = biological target: T1, Tyrosyl-DNA phosphodiesterase 2 (Homo sapiens, UniProt O95551); assay: human TDP2 enzyme inhibitors, dose response, biochemical, epi absorbance, IC50 (AID 743297)
T1 sequence (O95551 whole entry): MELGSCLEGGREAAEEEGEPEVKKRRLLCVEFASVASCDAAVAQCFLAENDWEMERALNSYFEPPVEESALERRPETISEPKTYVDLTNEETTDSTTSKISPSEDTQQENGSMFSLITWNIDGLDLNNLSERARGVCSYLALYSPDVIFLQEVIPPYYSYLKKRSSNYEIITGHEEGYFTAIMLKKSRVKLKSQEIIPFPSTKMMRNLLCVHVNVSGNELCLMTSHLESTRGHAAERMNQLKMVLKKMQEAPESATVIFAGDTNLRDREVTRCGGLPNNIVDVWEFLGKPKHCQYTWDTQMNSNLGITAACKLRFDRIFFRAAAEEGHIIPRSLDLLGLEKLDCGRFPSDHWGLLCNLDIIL

[2] = MC4R antagonists, dose response, counter-screen for LGR2 antagonist project, cell-based, plate reader, cherry pick (AID 743444); assay type: functional;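 further: transfected HEK 293 cells stimulated with alpha-MSH peptide; potency of inhibitors of the alpha-MSH evoked signal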
[3] = HepG2 cell cytotoxicity, dose response, cytotoxicity control, plate reader, cherry-pick, antagonist series (AID 743416); assay type: functional, cell-based
[4] = cytotoxicity toward NIH3T3 fibroblasts, dose response, counter-screen, cell-based, ATP luminescence, mouse fibroblasts (AID 2010); assay type: functional;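 further: cells exposed to compound for about 90 hours before reading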
X-box-binding protein 1 = biological target: T2, X-box-binding protein 1 (Homo sapiens, UniProt P17861); assay type: functional, Cricetulus griseus;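 further: confirmatory dose-response counter-screen serving a CHOP assay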
T2 sequence (P17861 whole entry): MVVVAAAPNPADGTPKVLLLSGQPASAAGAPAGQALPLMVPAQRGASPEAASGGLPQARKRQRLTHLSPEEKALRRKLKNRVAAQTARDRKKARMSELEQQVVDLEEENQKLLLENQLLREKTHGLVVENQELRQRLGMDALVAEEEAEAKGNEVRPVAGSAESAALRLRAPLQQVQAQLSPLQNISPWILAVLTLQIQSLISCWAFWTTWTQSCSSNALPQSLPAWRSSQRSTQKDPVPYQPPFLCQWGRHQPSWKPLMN

Hexokinase HKDC1 = Hexokinase HKDC1 (Homo sapiens, UniProt Q2TB90); assay: HKDC1 hexokinase inhibitors, dose response, biochemical, W721R variant (AID 504729); assay type: functional
Hexokinase HKDC1, sequence (Q2TB90 whole entry): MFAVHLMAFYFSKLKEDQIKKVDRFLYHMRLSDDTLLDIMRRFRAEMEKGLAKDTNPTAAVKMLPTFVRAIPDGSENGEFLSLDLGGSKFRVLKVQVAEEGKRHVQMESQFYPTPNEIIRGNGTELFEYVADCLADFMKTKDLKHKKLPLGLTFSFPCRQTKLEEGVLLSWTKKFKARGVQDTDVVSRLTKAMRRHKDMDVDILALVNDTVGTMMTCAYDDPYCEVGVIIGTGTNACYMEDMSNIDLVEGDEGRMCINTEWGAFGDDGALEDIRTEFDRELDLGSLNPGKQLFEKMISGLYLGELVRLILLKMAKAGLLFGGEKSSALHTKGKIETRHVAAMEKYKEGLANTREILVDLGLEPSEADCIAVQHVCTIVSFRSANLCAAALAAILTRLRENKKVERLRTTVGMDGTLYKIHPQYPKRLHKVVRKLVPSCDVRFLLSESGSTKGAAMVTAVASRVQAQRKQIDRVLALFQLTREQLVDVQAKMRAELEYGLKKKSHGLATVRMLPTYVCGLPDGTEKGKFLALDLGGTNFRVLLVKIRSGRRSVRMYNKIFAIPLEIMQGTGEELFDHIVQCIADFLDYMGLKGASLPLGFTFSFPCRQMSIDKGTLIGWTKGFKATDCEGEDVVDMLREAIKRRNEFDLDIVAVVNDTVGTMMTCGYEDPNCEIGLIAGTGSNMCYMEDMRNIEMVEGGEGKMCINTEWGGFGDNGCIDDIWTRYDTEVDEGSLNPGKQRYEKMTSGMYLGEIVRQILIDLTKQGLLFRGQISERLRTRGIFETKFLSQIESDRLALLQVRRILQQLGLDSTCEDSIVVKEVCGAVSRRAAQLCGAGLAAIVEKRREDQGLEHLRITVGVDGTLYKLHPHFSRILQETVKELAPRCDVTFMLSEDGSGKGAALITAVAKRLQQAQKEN

HEK293 [5] = assay: cells; settings: Homo sapiens
[6] = NIH-3T3 fibroblast cytotoxicity, dose response, cytotoxicity control, cell-based, fluorescence, Alamar Blue, secondary assay (AID 2327); assay type: functional;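 further: NIH-3T3 mouse fibroblasts cultured with fluconazole at 8 µg/mL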
Vero = assay: cells; assay type: functional; settings: Chlorocebus sabaeus
Fatty acid synthase [7] = biological target: T3, Fatty acid synthase (Homo sapiens, UniProt P49327); assay: FAS thioesterase domain inhibitors, dose response, biochemical, endpoint fluorescence intensity, uHTS hits (AID 624327); assay type: functional;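 further: fluorescence from hydrolysis of an O-methyl fluorescein acyl ester substrate by the enzyme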
T3 sequence (P49327 whole entry, the tested form may be a part): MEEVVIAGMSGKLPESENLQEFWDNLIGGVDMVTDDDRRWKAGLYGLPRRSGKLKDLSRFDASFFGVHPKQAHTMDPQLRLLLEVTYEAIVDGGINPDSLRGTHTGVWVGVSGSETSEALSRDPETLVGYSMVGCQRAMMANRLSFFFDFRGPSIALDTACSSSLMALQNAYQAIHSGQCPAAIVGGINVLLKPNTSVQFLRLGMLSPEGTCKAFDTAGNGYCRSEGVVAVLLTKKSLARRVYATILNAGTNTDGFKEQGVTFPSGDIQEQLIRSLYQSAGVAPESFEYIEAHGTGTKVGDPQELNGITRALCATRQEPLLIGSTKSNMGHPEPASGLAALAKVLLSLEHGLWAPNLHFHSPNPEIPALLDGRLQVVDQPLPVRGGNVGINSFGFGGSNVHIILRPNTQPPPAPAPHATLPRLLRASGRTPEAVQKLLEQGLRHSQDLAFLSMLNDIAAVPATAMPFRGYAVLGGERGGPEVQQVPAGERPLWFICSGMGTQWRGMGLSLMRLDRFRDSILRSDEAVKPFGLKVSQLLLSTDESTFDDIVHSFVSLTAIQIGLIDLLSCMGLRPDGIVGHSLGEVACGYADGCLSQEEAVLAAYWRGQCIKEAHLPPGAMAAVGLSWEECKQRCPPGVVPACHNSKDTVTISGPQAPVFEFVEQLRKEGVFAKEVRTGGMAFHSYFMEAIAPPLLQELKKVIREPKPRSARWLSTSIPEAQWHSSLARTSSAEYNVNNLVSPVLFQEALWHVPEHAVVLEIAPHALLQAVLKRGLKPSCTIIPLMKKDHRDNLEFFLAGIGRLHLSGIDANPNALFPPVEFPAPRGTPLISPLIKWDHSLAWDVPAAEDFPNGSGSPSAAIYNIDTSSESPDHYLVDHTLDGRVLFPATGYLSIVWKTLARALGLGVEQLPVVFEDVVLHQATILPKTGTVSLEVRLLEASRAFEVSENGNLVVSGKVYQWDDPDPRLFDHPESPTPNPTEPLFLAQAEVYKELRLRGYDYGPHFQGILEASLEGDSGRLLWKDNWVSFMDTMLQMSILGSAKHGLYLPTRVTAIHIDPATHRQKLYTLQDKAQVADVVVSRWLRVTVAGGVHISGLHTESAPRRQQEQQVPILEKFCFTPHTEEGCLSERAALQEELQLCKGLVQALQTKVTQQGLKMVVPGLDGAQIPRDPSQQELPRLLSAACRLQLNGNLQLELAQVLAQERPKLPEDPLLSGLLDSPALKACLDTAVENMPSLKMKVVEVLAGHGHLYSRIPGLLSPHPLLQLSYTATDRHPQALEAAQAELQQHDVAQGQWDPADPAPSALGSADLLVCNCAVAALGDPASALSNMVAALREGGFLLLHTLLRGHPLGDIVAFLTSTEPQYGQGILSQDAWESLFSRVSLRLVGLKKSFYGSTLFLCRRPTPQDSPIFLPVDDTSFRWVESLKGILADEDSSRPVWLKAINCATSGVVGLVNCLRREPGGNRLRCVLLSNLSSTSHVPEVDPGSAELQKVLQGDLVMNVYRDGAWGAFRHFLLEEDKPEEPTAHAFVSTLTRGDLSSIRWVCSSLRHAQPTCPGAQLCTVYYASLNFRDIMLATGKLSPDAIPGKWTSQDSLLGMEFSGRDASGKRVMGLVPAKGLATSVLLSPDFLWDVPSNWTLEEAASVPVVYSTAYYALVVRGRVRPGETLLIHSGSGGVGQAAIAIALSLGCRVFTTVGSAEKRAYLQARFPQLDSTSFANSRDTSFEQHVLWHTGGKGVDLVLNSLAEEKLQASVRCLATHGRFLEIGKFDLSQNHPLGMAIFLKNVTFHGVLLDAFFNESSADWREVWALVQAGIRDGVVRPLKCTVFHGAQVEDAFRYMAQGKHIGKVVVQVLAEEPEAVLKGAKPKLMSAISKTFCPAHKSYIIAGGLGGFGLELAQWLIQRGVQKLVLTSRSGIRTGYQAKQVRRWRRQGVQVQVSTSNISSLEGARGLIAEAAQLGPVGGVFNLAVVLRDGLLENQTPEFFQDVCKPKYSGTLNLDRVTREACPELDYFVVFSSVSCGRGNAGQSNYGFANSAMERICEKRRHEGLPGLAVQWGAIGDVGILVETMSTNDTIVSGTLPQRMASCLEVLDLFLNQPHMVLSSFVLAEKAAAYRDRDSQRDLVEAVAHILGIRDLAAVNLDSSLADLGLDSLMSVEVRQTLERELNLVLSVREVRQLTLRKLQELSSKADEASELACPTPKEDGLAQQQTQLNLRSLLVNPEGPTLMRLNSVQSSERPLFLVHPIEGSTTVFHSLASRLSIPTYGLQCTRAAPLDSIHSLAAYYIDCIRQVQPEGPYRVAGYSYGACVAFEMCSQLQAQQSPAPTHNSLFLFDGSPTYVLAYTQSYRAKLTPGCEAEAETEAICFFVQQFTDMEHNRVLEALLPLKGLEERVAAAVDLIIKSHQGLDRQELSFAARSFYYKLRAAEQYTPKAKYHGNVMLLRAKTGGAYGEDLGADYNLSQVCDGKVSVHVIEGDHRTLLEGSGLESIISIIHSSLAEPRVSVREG

BJ [8] = assay: cells; assay type: functional, cell-based; settings: Homo sapiens
[9] = growth suppression of PTEN-null colon cells, dose response, cell-based, HCT116 PTEN knockout (AID 1047); assay type: functional;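 further: HCT116 colon tumor cells with PTEN knocked out; cells exposed to compound for 60 hours before readout; potency for loss of cell viability measured by luminescence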
[10] = inhibitors of Vif binding to APOBEC3G peptide, primary screen, biochemical, TR-FRET, GST-Vif 1-94, biotin-A3G peptide, dose response retest (AID 1117319); assay type: functional;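 further: TR-FRET signal of purified GST-Vif binding a biotinylated A3G peptide; inhibitors lower the FRET signal by blocking Vif and A3G binding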
Fatty acid synthase [11] = biological target: T3, Fatty acid synthase; assay: FAS thioesterase domain inhibitors, dose response, biochemical, kinetic fluorescence intensity (AID 624326); assay type: functional;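 further: rate of fluorescence rise from hydrolysis of a fluorogenic O-methyl fluorescein ester substrate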
[12] = biological target: Heat shock protein HSP 90-alpha (Homo sapiens, UniProt P07900); assay type: functional, organism-based
[13] = Fluorescence-based cell-based high throughput dose response assay for inhibitors of the interaction of nucleotide-binding oligomerization domain containing 2 (NOD2) and the receptor-interacting serine-threonine kinase 2 (RIPK2).; assay type: functional; settings: Homo sapiens
[14] = growth suppression of beta-catenin-knockout colon cells, dose response, cell-based, HCT116, human colon tumor (AID 1045); assay type: functional;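 further: HCT116 colon tumor cells with beta catenin knocked out; cells exposed to compound for 60 hours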
BJ [15] = assay: cytotoxicity toward BJ-TERT-LT-ST fibroblasts, dose response, cell-based, RAS-independent, luminescence (AID 1935); assay type: functional; settings: Homo sapiens;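 further: BJ fibroblasts immortalized with TERT plus LT and ST oncogenes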
[16] = cytotoxicity toward DRD oncogenic fibroblasts, dose response, cell-based, non-viral oncogenic, luminescence (AID 1934); assay type: functional; settings: Homo sapiens
BJ [17] = assay: cytotoxicity toward BJ-TERT fibroblasts, dose response, cell-based, RAS-independent, luminescence (AID 1933); assay type: functional; settings: Homo sapiens
[18] = biological target: T4, Heat shock factor protein 1 (Mus musculus, UniProt P38532); assay: HSF1 potentiators in luciferase reporter cells, confirmation, cell-based, NIH3T3, luminescence, dose retest (AID 435004); assay type: functional;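 further: stress induced by proteasome inhibitor MG132 added 30 min after compound; luciferase reporter driven by HSF1 response element in NIH3T3 cells; actives raise luminescence as potentiators of the MG132 stress response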
T4 sequence (P38532 whole entry): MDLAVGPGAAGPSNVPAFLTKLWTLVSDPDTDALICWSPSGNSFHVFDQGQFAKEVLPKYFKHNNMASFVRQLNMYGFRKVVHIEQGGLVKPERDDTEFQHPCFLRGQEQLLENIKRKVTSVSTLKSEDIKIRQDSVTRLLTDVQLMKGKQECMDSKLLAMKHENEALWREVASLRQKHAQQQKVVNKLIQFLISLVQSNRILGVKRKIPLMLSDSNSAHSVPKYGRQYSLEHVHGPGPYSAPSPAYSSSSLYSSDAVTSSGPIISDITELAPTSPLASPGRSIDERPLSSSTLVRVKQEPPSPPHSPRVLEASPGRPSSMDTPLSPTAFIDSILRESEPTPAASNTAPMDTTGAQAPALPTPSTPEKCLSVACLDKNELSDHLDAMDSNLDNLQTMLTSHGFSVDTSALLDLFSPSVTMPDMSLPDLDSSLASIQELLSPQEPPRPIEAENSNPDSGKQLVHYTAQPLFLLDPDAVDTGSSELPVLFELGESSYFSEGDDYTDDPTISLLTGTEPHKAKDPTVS

HEK293 [19] = assay: cells; settings: Homo sapiens; remark: listed apart in the source
[20] = inhibitors of intracellular T. cruzi replication, confirmation, NIH3T3 host cells, beta-gal luminescence (AID 2044); assay type: functional, cell-based;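 further: intracellular parasites grown in NIH/3T3 mouse fibroblasts as host cells; luminescent beta-galactosidase reporter signal from transgenic T. cruzi replicating inside host cells; inhibitors lower the luminescence signal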
[21] = THP-1 cell cytotoxicity, dose response, cytotoxicity control for Vif-APOBEC3G degradation inhibitor project, THP-1 cells (AID 1117359); assay type: functional; settings: Human immunodeficiency virus 1, THP-1
Nonstructural protein 1 = Nonstructural protein 1 (Influenza A virus, UniProt Q194T2); assay type: functional, Influenza A virus (A/California/07/2009(H1N1))
Nonstructural protein 1, sequence (Q194T2 whole entry): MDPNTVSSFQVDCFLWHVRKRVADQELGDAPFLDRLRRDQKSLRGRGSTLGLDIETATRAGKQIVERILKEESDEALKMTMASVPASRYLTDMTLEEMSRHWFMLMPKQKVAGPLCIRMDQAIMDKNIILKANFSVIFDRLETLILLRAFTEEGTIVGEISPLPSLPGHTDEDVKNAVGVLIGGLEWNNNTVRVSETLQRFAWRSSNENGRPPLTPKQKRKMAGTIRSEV

[22] = C. albicans growth with fluconazole, confirmation, fluorescence, retest (AID 2467); assay type: functional, cell-based
[23] = biological target: DNA damage-inducible transcript 3 protein (Mus musculus, UniProt P35639); assay type: functional, Cricetulus griseus
DNA damage-inducible transcript 3 protein, sequence (P35639 whole entry): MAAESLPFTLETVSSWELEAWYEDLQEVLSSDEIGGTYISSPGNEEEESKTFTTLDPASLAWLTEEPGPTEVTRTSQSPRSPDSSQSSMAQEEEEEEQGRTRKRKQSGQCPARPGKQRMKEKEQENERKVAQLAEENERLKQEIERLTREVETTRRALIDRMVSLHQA

Large T antigen = Large T antigen (Simian virus 40, UniProt P03070); assay type: functional, Betapolyomavirus macacae;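 further: Confirmatory-stage PubChem screen for compounds that inhibit SV40 T antigen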
Large T antigen, sequence (P03070 whole entry): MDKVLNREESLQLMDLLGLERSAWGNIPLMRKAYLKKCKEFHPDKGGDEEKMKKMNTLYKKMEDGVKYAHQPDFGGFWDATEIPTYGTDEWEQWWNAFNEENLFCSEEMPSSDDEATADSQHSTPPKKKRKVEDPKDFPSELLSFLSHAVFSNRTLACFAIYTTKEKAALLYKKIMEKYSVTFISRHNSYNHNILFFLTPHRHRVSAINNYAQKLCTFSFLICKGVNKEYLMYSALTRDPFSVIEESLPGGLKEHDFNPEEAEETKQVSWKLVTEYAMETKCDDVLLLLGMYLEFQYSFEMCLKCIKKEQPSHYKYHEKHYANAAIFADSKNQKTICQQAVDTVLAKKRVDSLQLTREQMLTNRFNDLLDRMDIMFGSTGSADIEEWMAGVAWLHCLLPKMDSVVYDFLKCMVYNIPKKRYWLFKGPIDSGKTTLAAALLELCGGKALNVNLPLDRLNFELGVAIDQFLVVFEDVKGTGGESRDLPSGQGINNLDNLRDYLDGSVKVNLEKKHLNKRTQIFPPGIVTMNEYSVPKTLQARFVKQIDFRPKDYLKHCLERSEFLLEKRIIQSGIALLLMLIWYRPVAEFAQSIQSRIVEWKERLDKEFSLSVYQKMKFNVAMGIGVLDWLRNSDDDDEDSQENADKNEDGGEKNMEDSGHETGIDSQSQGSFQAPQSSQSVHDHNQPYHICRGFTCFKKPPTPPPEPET

Kallikrein-7, sequence (P49862 whole entry): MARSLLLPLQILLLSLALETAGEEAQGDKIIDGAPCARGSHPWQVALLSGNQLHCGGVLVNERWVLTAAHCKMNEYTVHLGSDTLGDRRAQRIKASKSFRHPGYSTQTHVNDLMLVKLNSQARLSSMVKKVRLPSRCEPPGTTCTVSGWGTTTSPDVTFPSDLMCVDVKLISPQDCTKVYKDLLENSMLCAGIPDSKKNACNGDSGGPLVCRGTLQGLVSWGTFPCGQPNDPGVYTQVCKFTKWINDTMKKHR

With `O=c1[nH]c(N2CCOCC2)cc2ccccc12` as the compound, how does the EC50 (Kallikrein-7) read?
Its EC50 is > 69.6 µM (inactive).

Which IC50 [1] does the source give for `O=C1c2ccccc2C(=O)C12OC2c1cccc2ccccc12` (configuration not stated) here?
Its IC50 is 5.07 µM (active).

Which IC50 [1] does the source give for `CCC(COC)Oc1cc(NCc2ccccc2)c2ncn(C(C)C)c2c1` (configuration not stated) here?
Its IC50 is > 42.8 µM (inactive).

What about the AC50 [2] of the same compound?
The AC50 was 33.5 µM (active).

What about the AC50 [3] of the same compound?
Its AC50 is 19.6 µM (active).

For `O=[N+]([O-])c1ccc(Sc2nc3ccccc3o2)c([N+](=O)[O-])c1`, which EC50 [4] is on record?
The EC50 was 1.81 µM (active).

And the “Absolute IC50 (XBP1)” value (X-box-binding protein 1)?
Its value is 10 µM.

And the IC50 (Hexokinase HKDC1)?
The IC50 was 37.4 µM (inactive).

What about the EC50 (HEK293 [5]) of the same compound?
Its EC50 is > 59.6 µM (inactive).

What about the EC50 [6] of the same compound?
The EC50 was 5.82 µM (inconclusive).

What about the CC50 (Vero) of the same compound?
The CC50 was 4.12 µM (active).

And the IC50 (Fatty acid synthase [7])?
The IC50 was 15.8 µM (active).

And the EC50 (BJ [8])?
Its EC50 is 8.14 µM (active).

What about the EC50 [9] of the same compound?
The EC50 was 6.88 µM (active).

What about the AC50 [2] of the same compound?
Its AC50 is 28.8 µM (active).

And the IC50 [10]?
The IC50 was > 100 µM (active).

What about the IC50 (Fatty acid synthase [11]) of the same compound?
The IC50 was 10.1 µM (active).

And the AC50 [12]?
The AC50 was 2.22 µM (active).

And the IC50 [13]?
Its IC50 is 1.92 µM (active).

What about the EC50 [14] of the same compound?
Its EC50 is 5.57 µM (active).

What about the EC50 (BJ [15]) of the same compound?
Its EC50 is 5.55 µM (active).

And the EC50 [16]?
Its EC50 is 4.54 µM (inconclusive).

What about the EC50 (BJ [17]) of the same compound?
The EC50 was 3.27 µM (active).

What about the AC50 [3] of the same compound?
Its AC50 is 6.16 µM (active).

What about the EC50 [18] of the same compound?
The EC50 was 11.7 µM (active).

And the EC50 (HEK293 [19])?
The EC50 was > 59.6 µM (inactive).

And the EC50 [20]?
The EC50 was 1.27 µM (active).

What about the CC50 [21] of the same compound?
Its CC50 is 2.46 µM (active).

And the IC50 (Nonstructural protein 1)?
Its IC50 is 34.2 µM (active).

What about the EC50 [22] of the same compound?
Its EC50 is 1.37 µM (active).

And the “Absolute IC50 (CHOP)” value [23]?
Its value is 10 µM.

What about the IC50 (Large T antigen) of the same compound?
The IC50 was 84.9 µM (active).
